The source of these data is patent publication US11084800B2 (Achillion Pharmaceuticals, Inc., priority 2017, dated 2021).

The experiment has as its target Human Factor D (Homo sapiens (Human), UniProt P00746). The experiment is described as follows: Human Factor D Assay. Type of experiment: biochemical. The settings on record: Table 6; Factor D 80 nM, substrate Z-L-Lys-SBz; read-out: IC50. The protocol:
The assay of Example 10 was used to determine the IC50's of the compounds. Other standard factor D inhibition assays are also available.
Human Factor D (purified from human serum, Complement Technology, Inc.) at 80 nM final concentration is incubated with test compound at various concentrations for 5 min at room temperature in 50 mM Tris, 1M NaCl, pH 7.5. A synthetic substrate Z-L-Lys-SBz and DTNB (Ellman's reagent) are added to final concentrations of 100 μM each. Absorbance at 405 nm (A405) is recorded at 30 second intervals for 30 min using a microplate spectrophotometer. IC50 values are calculated by nonlinear regression of complement Factor D reaction rates as a function of test compound concentration.

pIC50: −log10 of the molar value.

Chain of Human Factor D (P00746 26-253): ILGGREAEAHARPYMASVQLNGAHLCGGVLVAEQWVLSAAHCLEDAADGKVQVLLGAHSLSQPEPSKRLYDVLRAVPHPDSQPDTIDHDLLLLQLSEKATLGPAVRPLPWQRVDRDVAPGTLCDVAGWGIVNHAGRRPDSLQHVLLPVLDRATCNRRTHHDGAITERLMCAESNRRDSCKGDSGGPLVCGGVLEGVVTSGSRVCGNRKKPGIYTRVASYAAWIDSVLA

For the molecule `CC(=O)c1nn(CC(=O)N2C3CC3(CN)C[C@H]2C(=O)Nc2nc(Br)ccc2C)c2ccc(-c3cnc(C)nc3)cc12` (stereo partly drawn) [Compound 26, (3S)-2-(2-(3-Acetyl-5-(2-methylpyrimidin-5-yl)-1H-indazol-1-yl)acetyl)-5-(aminomethyl)-N-(6-bromo-3-methylpyridin-2-yl)-2-azabicyclo[3.1.0]hexane-3-carboxamide], the pIC50 was 5.00 to 6.00.

Regarding `CC(=O)c1nn(CC(=O)N2[C@H](C(=O)Nc3nc(Br)c(F)cc3C)C[C@@]3(C)C[C@@H]23)c2c(C)cc(-c3cnc(C)nc3)cc12` [Compound 27, (1R,3S,5R)-2-(2-(3-acetyl-7-methyl-5-(2-methylpyrimidin-5-yl)-1H-indazol-1-yl)acetyl)-N-(6-bromo-5-fluoro-3-methylpyridin-2-yl)-5-methyl-2-azabicyclo[3.1.0]hexane-3-carboxamide], the pIC50 is over 6.00.

With `C=CCOCc1ccc(Br)nc1NC(=O)[C@@H]1C[C@]2(COCC=C)C[C@@H]2N1C(=O)Cn1nc(C(C)=O)c2cc(-c3cnc(C)nc3)ccc21` [Compound 29, (1S,3S,5R)-2-(2-(3-Acetyl-5-(2-methylpyrimidin-5-yl)-1H-indazol-1-yl)acetyl)-5-((allyloxy)methyl)-N-(3-((allyloxy)methyl)-6-bromopyridin-2-yl)-2-azabicyclo[3.1.0]hexane-3-carboxamide], the pIC50 is over 6.00.

As to `CC(=O)c1nn(CC(=O)N2[C@H](C(=O)Nc3nc(Br)ccc3C)C[C@@]3(C)C[C@@H]23)c2c(CF)cc(-c3cnc(C)nc3)cc12` [Compound 31, (1R,3S,5R)-2-(2-(3-Acetyl-7-(fluoromethyl)-5-(2-methylpyrimidin-5-yl)-1H-indazol-1-yl)acetyl)-N-(6-bromo-3-methylpyridin-2-yl)-5-methyl-2-azabicyclo[3.1.0]hexane-3-carboxamide], the pIC50 is over 6.00.

Regarding `COCc1cc(-c2cnc(C)nc2)cc2c(C(C)=O)nn(CC(=O)N3C4CC4(COC)C[C@H]3C(=O)Nc3cccc(Br)n3)c12` (stereo partly drawn) [Compound 32, (3S)-2-(2-(3-Acetyl-7-(methoxymethyl)-5-(2-methylpyrimidin-5-yl)-1H-indazol-1-yl)acetyl)-N-(6-bromopyridin-2-yl)-5-(methoxymethyl)-2-azabicyclo[3.1.0]hexane-3-carboxamide], the pIC50 was over 6.00.

As for `CC(=O)c1nn(CC(=O)N2[C@H](C(=O)Nc3cccc(OC(F)(F)F)c3F)C[C@@]3(C)C[C@@H]23)c2c(C)cc(-c3cnc(C)nc3)cc12` [Compound 33, (1R,3S,5R)-2-(2-(3-Acetyl-7-methyl-5-(2-methylpyrimidin-5-yl)-1H-indazol-1-yl)acetyl)-N-(2-fluoro-3-(trifluoromethoxy)phenyl)-5-methyl-2-azabicyclo[3.1.0]hexane-3-carboxamide], the pIC50 was over 6.00.

`CC(=O)c1nn(CC(=O)N2[C@H](C(=O)N[C@@H](C)C(F)=C(C)C)C[C@@]3(C)C[C@@H]23)c2c(C)cc(-c3cnc(C)nc3)cc12` [Compound 34, (1R,3S,5R)-2-(2-(3-Acetyl-7-methyl-5-(2-methylpyrimidin-5-yl)-1H-indazol-1-yl)acetyl)-N—((S)-3-fluoro-4-methylpent-3-en-2-yl)-5-methyl-2-azabicyclo[3.1.0]hexane-3-carboxamide]: the negative-log IC50 (pIC50) is over 6.00.

On to `CC(=O)c1nn(CC(=O)N2[C@H](C(=O)Nc3ccn(CC(F)(F)F)n3)C[C@@]3(C)C[C@@H]23)c2c(C)cc(-c3cnc(C)nc3)cc12` [Compound 35, (1R,3S,5R)-2-(2-(3-Acetyl-7-methyl-5-(2-methylpyrimidin-5-yl)-1H-indazol-1-yl)acetyl)-5-methyl-N-(1-(2,2,2-trifluoroethyl)-1H-pyrazol-3-yl)-2-azabicyclo[3.1.0]hexane-3-carboxamide], for which the pIC50 was over 6.00.
